Results as given in publication PMC12575728, “Galactose-modified small molecule modulator targets RORα to enhance circadian rhythm and alleviate periodontitis-associated alveolar bone loss” (Bone Research, 2025).

What was measured:
human U2OS cells = test: CCK-8 assay and live-dead staining; assay type: cell-based; settings: 1-100 μmol/L, 24, 48, 72 h, pronounced above 10 μmol/L
Protocol: U2OS cells were seeded at a density of 10 000 cells per well in a 96-well plate, with 100 μL of culture medium added to each well. The cells were incubated at 37 °C in a 5% CO2 atmosphere for 24 h or until they reached the logarithmic growth phase. Following this, the cells were treated with SR1078, Gala-SR, Malt-SR, and Mann-SR and incubated for 24, 48, and 72 h. 10 μL of CCK-8 reagent was added to each well, and the plate was returned to the incubator for an additional 1–4 h. Absorbance at 450 nm was then measured using a microplate reader. The average absorbance for each well was calculated, and relative cell viability was determined by comparing the absorbance values to those of the control group.
332 Figure S25. After U2OS cells were treated with various concentrations (0 ~ 50 μM) of SR1078,
333 Gala-SR, Malt-SR, and Mann-SR for 24 hours, live and dead cells were labeled using the
334 Calcein-AM/PI double-staining method. Scale bar: 50 μm.
Body weight changes (%) in
338 C57BL/6J mice (n = 4) after 7 days of administration of Gala-SR, SR1078, or DMSO at doses of 10
339 mg/kg and 50 mg/kg via IP were measured. […]

RORα/γ = test: PCR of RORα/γ downstream target genes G6Pase and FGF21 in HepG2 cells; assay type: cell-based
Protocol: Cells were seeded into 6-well plates, treated with the drug for 24 h, and total RNA samples were extracted using TRIzol reagent (Vazyme, China). The extraction of total RNA was performed according to the following steps: After removal of the supernatant, the cells were thoroughly washed three times with phosphate-buffered saline (PBS). Subsequently, the cells were lysed by the application of 1 mL TRIzol reagent. The resulting samples were harvested into frozen 2 mL Eppendorf microcentrifuge tubes and incubated at room temperature for 5 min. A volume of 0.2 mL of chloroform was added to the microcentrifuge tubes to ensure homogenization of the samples, which were then vortexed and incubated at room temperature for another 10 min. The samples were then centrifuged at a speed of 12 000 × g in a microcentrifuge at 4 °C for 15 min. The upper aqueous phase was subsequently collected and transferred to a new 2 mL microcentrifuge tube and mixed with an equal volume of isopropanol. The mixture was then centrifuged at a speed of 12 000 × g in a table microcentrifuge at 4 °C for 10 min. The resulting precipitates were washed once with 1 mL of 75% ethanol and once with 100% ethanol, followed by centrifugation at a speed of 7 500 × g in a table microcentrifuge for 5 min. Finally, the pellet was dissolved in RNase-free DEPC-treated water.
(§1) RNA from liver, periodontal tissues and cell samples was prepared as previously described. Total RNA (1 ug) was synthesized into cDNA using […] (Vazyme). mRNA expression levels were normalized to GAPDH. Relative expression levels and enrichment contents were calculated using the comparative Ct Method. Primer information is detailed in Data file S1.

β-galactosidase = test: Hydrolysis of Gala-SR by β-galactosidase (MS); assay type: in vitro ADME; settings: mass spectrometry
[1] = system: human periodontal ligament stem cells; test: qPCR of circadian clock genes in synchronized human periodontal ligament stem cells; assay type: cell-based; settings: synchronized hPDLSCs, 5 µM, compared to DMSO and SR1078
Protocol: as §1
(§2) 379 Figure S34. Exploration of the inhibitory effect of compound 9 on the targeting function of RORs. a.
(§3) 380 Synthetic route of compound 9. b. Cytotoxicity assessment of compound 9 by CCK-8 assay. c.qPCR
(§4) 381 analysis of downstream target genes (FGF21 and G6Pase) in compound 9-treated HepG2 cells(n=6).
(§5) 382 d. Cotransfection of HEK293T cells with RORα or RORγ and reporters containing the FGF21 or
(§6) 384 5μM each of Gala-SR and SR1078. (* represents the comparison with DMSO*P<0.05, n=4).
(§7) 386 Figure S35. Impact of Gala-SR on circadian clock gene expression in periodontal ligament stem cells.
(§8) 387 qPCR analysis of core clock genes at multiple time points in synchronized hPDLSCs treated with 5
(§9) 391 Figure S36.Toxicity and safety evaluation in vivo.a. After intraperitoneal injection of Gala-SR and
(§10) 392 SR1078 for 2 weeks, mouse serum was collected to measure […] (ALT, AST, CREA,
393 and BUN. ns, not significant) to assess the drugs' impact on liver function. b. HE staining was […]

[2] = Toxicity and safety evaluation in vivo (blood biochemistry, histopathology); settings: mice, 10 mg/Kg
Protocol: as §2, §3, §4, §5, §6, §7, §8, §9, §10
393 and BUN. ns, not significant) to assess the drugs' impact on liver function. b. HE staining was
394 performed on liver, kidney, and heart tissues from mice after 2 weeks of intraperitoneal injection with […]

O=C(Nc1ccc(C(OCO[C@@H]2O[C@H](CO)[C@H](O)[C@H](O)[C@H]2O)(C(F)(F)F)C(F)(F)F)cc1)c1ccc(C(F)(F)F)cc1 [Gala-SR]
cytotoxicity / cell compatibility (human U2OS cells): superior among all the evaluated groups | G6Pase and FGF21 expression, with galactosidase inhibitor (RORα/γ; HepG2, 5 μmol/L Gala-SR + β-galactosidase inhibitor, vs pure Gala-SR): downregulated | G6Pase and FGF21 expression, with galactosidase (RORα/γ; HepG2, 5 μmol/L Gala-SR + β-galactosidase, vs pure Gala-SR): significantly upregulated | G6Pase and FGF21 mRNA expression (RORα/γ; HepG2 cells, 5 μmol/L, 24 h, compared to SR1078): significant upregulation | hydrolysis upon addition of galactosidase (release of SR1078) (β-galactosidase): hydrolysis of galactose on, Gala-SR occurred | rhythmic expression amplitude of BMAL1, PER1, and PER2 [1]: more effectively enhanced | histopathological examination of liver, kidney, and heart [2]: no discernible changes
